# Source: US12240853B2, “Compounds useful in HIV therapy” (GlaxoSmithKline Intellectual Property (No.2) Limited, priority 2019, dated 2025)
# Where two headings read alike, the source gives them in different places.
# Assay: Example 18 cynomolgus monkey PK study (SC and IM)
# Type: in vivo, cynomolgus monkeys
# Details: male, cynomolgus monkey, plasma, read-out: Example 18 plasma concentrations
# Text: Example 18 referenced herein was made in accordance with Synthesis B. Six male cynomolgus monkeys (+1 spare) were selected from the Testing Facility's colony of non-naïve animals. The animals were assigned to the study based on acceptable health as determined by a Testing Facility veterinarian. Six animals were selected and placed into two groups of three animals each. Fasting of the animals before or after dosing was not required.
# […] […] The animals were manually restrained for dosing and were not sedated. The dose sites were clipped of hair and wiped with alcohol before dosing. All dosing was performed as detailed in the study protocol and was completed without incident.
# Blood samples were collected from the study animals as detailed in the sample collection Table 39 below.
# Blood samples were collected by venipuncture of a cephalic vein. For PK, blood was transferred to a blood collection tube containing NaF/Na2EDTA anticoagulant, mixed by inversion, and maintained on wet ice until processing. The blood samples were centrifuged at 2200×g for 10 minutes at 5° C. to isolate plasma. The resulting plasma samples were transferred to individual polypropylene tubes in a 96-well plate format and immediately placed on dry ice until storage at nominally −20° C. prior to shipment for analysis.
# The PK plasma samples were analyzed approximately every two weeks by the Testing Facility to determine the concentration of Example 18 (prodrug) and parent using an LC-MS/MS Research Grade Assay (RGA-1) with sensitivity to 0.1 ng/mL. Following interim review of sample analysis data, analysis for Example 18 (prodrug) was discontinued after the Day 57 sample collections. The bioanalytical report and sample concentration data are presented in Tables 40 and 41, and mean concentration-time profiles are shown in FIGS. 29 and 30
# [1] = intramuscular, 20 mg/kg equivalent of EFdA, IM 20 mg/kg equivalent of EFdA, Monkey 2001
# [2] = intramuscular, 20 mg/kg equivalent of EFdA, IM 20 mg/kg equivalent of EFdA, Monkey 2002
# [3] = intramuscular, 20 mg/kg equivalent of EFdA, IM 20 mg/kg equivalent of EFdA, Monkey 2003
# [4] = sc, 20 mg/kg, SC 20 mg/kg equivalent of EFdA, Mean
# [5] = sc, 20 mg/kg, SC 20 mg/kg equivalent of EFdA, Monkey 1001
# [6] = sc, 20 mg/kg, SC 20 mg/kg equivalent of EFdA, Monkey 1002 (column 3)
# [7] = sc, 20 mg/kg, SC 20 mg/kg equivalent of EFdA, Monkey 1002
structure (smiles),measurement,setting,value
"C#C[C@]1(COC(=O)CCCCCCCCC)O[C@@H](n2cnc3c(N)nc(F)nc32)C[C@@H]1OC(=O)CCCCCCCCC [Example 18, (2R,3S,5R)-5-(6-amino-2-fluoro-9H-purin-9-yl)-2-((decanoyloxy)methyl)-2-ethynyltetrahydrofuran-3-yl Decanoate]",concentration at 0.208 days,[1],51.3 ng/mL
same,concentration at 0.292 days,[1],30.1 ng/mL
same,concentration at 1 days,[1],6.89 ng/mL
same,concentration at 2 days,[1],0.652 ng/mL
same,concentration at 3 days,[1],0.379 ng/mL
same,concentration at 8 days,[1],0.203 ng/mL
same,concentration at 10 days,[1],0.156 ng/mL
same,concentration at 17 days,[1],0.135 ng/mL
same,concentration at 19 days,[1],0.119 ng/mL
same,concentration at 22 days,[1],0.146 ng/mL
same,concentration at 29 days,[1],0.155 ng/mL
same,concentration at 0.021 days,[2],40.2 ng/mL
same,concentration at 0.042 days,[2],82.6 ng/mL
same,concentration at 0.125 days,[2],363 ng/mL
same,concentration at 0.208 days,[2],692 ng/mL
same,concentration at 0.292 days,[2],821 ng/mL
same,concentration at 1 days,[2],110 ng/mL
same,concentration at 2 days,[2],0.674 ng/mL
same,concentration at 3 days,[2],0.533 ng/mL
same,concentration at 8 days,[2],0.248 ng/mL
same,concentration at 10 days,[2],0.251 ng/mL
same,concentration at 17 days,[2],0.16 ng/mL
same,concentration at 19 days,[2],0.149 ng/mL
same,concentration at 22 days,[2],0.114 ng/mL
same,concentration at 25 days,[2],0.125 ng/mL
same,concentration at 29 days,[2],0.135 ng/mL
same,concentration at 0.021 days,[3],1.93 ng/mL
same,concentration at 0.042 days,[3],0.79 ng/mL
same,concentration at 0.125 days,[3],3.31 ng/mL
same,concentration at 0.208 days,[3],5.27 ng/mL
same,concentration at 0.292 days,[3],6.42 ng/mL
same,concentration at 1 days,[3],2.08 ng/mL
same,concentration at 2 days,[3],0.387 ng/mL
same,concentration at 3 days,[3],0.63 ng/mL
same,concentration at 8 days,[3],0.171 ng/mL
same,concentration at 10 days,[3],0.19 ng/mL
same,concentration at 17 days,[3],0.154 ng/mL
same,concentration at 19 days,[3],0.129 ng/mL
same,concentration at 22 days,[3],0.113 ng/mL
same,concentration at 25 days,[3],0.151 ng/mL
same,concentration at 46 days,"intramuscular, 20 mg/kg equivalent of EFdA, IM 20 mg/kg equivalent of EFdA, Monkey 2003, 46 days",0.105 ng/mL
same,concentration at 0.021 days,[4],0.235 ng/mL
same,concentration at 0.042 days,[4],0.905 ng/mL
same,concentration at 0.125 days,[4],3.94 ng/mL
same,concentration at 0.208 days,[4],4.95 ng/mL
same,concentration at 0.292 days,[4],4.53 ng/mL
same,concentration at 1 days,[4],1.12 ng/mL
same,concentration at 2 days,[4],0.405 ng/mL
same,concentration at 3 days,[4],0.312 ng/mL
same,concentration at 8 days,[4],0.117 ng/mL
same,concentration at 10 days,[4],129 ng/mL
same,concentration at 0.021 days,[5],49.4 ng/mL
same,concentration at 0.042 days,[5],70.3 ng/mL
same,concentration at 0.125 days,[5],149 ng/mL
same,concentration at 0.208 days,[5],92.8 ng/mL
same,concentration at 0.292 days,[5],146 ng/mL
same,concentration at 1 days,[5],36.5 ng/mL
same,concentration at 2 days,[5],0.734 ng/mL
same,concentration at 3 days,[5],0.694 ng/mL
same,concentration at 10 days,[5],0.146 ng/mL
same,concentration at 0.021 days,[6],0.133 ng/mL
same,concentration at 0.042 days,[6],0.179 ng/mL
same,concentration at 0.125 days,[6],2.29 ng/mL
same,concentration at 0.208 days,[6],1.91 ng/mL
same,concentration at 0.292 days,[6],2.38 ng/mL
same,concentration at 1 days,[6],0.641 ng/mL
same,concentration at 2 days,[6],0.579 ng/mL
same,concentration at 3 days,[6],0.396 ng/mL
same,concentration at 8 days,[6],0.131 ng/mL
same,concentration at 10 days,[6],0.146 ng/mL
same,concentration at 0.021 days,[7],0.337 ng/mL
same,concentration at 0.042 days,[7],1.63 ng/mL
same,concentration at 0.125 days,[7],5.59 ng/mL
same,concentration at 0.208 days,[7],7.99 ng/mL
same,concentration at 0.292 days,[7],6.67 ng/mL
same,concentration at 1 days,[7],1.6 ng/mL
same,concentration at 2 days,[7],0.23 ng/mL
same,concentration at 3 days,[7],0.228 ng/mL
same,concentration at 8 days,[7],0.102 ng/mL
same,concentration at 10 days,[7],0.111 ng/mL
